Test results as given in patent US11186544B2 (BRISTOL-MYERS SQUIBB COMPANY, priority 2017, dated 2021).

What was measured:
[1] = target: human FPR1 (Homo sapiens (Human), UniProt P21462); experiment: FPR1 cyclic adenosine monophosphate (cAMP) assay; assay type: cell-based; settings: CHO cells overexpressing human FPR1; inhibition of forskolin (10 μM) stimulated cAMP; read-out: hFPR1 cAMP EC50
Procedure: (§1) FPR2 and FPR1 Cyclic Adenosine Monophosphate (cAMP) Assays. A mixture of forskolin (5 μM final for FPR2 or 10 μM final for FPR1) and IBMX (200 μM final) were added to 384-well Proxiplates (Perkin-Elmer) pre-dotted with test compounds in DMSO (1% final) at final concentrations in the range of 0.020 nM to 100 μM. Chinese Hamster Ovary cells (CHO) overexpressing human FPR1 or human FPR2 receptors were cultured in F-12 (Ham's) medium supplemented with 10% qualified FBS, 250 μg/ml zeocin and 300 μg/ml hygromycin (Life Technologies). Reactions were initiated by adding 2,000 human FPR2 cells per well or 4,000 human FPR1 cells per well in Dulbecco's PBS (with calcium and magnesium) (Life Technologies) supplemented with 0.1% BSA (Perkin-Elmer). The reaction mixtures were incubated for 30 min at room temperature. The level of intracellular cAMP was determined using the HTRF HiRange cAMP assay reagent kit (Cisbio) according to manufacturer's instruction. Solutions of cryptate conjugated anti-cAMP and d2 flurorophore-labelled cAMP were made in a supplied lysis buffer separately. Upon completion of the reaction, the cells were lysed with equal volume of the d2-cAMP solution and anti-cAMP solution. After a 1-h room temperature incubation, time-resolved fluorescence intensity was measured using the Envision (Perkin-Elmer) at 400 nm excitation and dual emission at 590 nm and 665 nm. A calibration curve was constructed with an external cAMP standard at concentrations ranging from 1 μM to 0.1 pM by plotting the fluorescent intensity ratio from 665 nm emission to the intensity from the 590 nm emission against cAMP concentrations. The potency and activity of a compound to inhibit cAMP production was then determined by fitting to a 4-parametric logistic equation from a plot of cAMP level versus compound concentrations.

[2] = target: human FPR2 (Homo sapiens (Human), UniProt P25090); experiment: FPR2 cyclic adenosine monophosphate (cAMP) assay; assay type: cell-based; settings: CHO cells overexpressing human FPR2; inhibition of forskolin (5 μM) stimulated cAMP; read-out: hFPR2 cAMP2 EC50
Procedure: as §1, with “After a 1-h room temperature incubation, time-resolved fluorescence intensity was measured using the Envision (Perkin-Elmer) at 400 nm excitation and dual emission at 590 nm and 665 nm. A calibration curve was constructed with an external cAMP standard at concentrations ranging from 1 μM to 0.1 pM by plotting the fluorescent intensity ratio from 665 nm emission to the intensity from the 590 nm emission against cAMP concentrations.” left out

human FPR1, sequence (P21462 whole entry): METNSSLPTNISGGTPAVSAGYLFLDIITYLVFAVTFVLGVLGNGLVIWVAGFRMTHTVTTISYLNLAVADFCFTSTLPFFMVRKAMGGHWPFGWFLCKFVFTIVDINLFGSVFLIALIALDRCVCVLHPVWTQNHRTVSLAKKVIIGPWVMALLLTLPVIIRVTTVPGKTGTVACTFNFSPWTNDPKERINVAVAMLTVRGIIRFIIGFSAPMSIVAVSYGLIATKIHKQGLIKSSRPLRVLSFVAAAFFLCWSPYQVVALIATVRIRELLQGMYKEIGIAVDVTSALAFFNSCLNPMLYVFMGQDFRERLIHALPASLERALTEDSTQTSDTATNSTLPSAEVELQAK
human FPR2, sequence (P25090 whole entry): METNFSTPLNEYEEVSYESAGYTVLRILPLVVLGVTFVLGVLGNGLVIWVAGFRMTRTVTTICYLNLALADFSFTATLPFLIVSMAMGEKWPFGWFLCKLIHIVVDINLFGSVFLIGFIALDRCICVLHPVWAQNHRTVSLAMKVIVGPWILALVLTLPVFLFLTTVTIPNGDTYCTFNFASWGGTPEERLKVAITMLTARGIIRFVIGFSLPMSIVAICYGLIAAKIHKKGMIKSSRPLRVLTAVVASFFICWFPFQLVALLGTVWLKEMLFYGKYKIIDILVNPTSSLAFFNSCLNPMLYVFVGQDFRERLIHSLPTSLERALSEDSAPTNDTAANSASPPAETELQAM

Row | Compound | EC50 [1] [nM] | EC50 [2] [nM]
1 | O=C(Nc1ccc(C(F)(F)F)cc1)NC1CCCN(c2ccc(-c3ccccc3)cc2)C1=O (stereo not shown) [Example 36, 1-(1-([1,1′-biphenyl]-4-yl)-2-oxopiperidin-3-yl)-3-(4-(trifluoromethyl)phenyl)urea] | 280 | 9.7
2 | O=C(Nc1ccc(C(F)(F)F)cc1)N[C@H]1CCCN(c2ccc(-c3ccccc3CO)cc2)C1=O [Example 58] | 280 | 9.2
3 | O=C(Nc1ccc(Cl)cc1)N[C@@H]1CCCN(c2ccc(-c3ccccc3CO)cc2)C1=O [Example 77] | 8.8 | 0.68
4 | CC(C)(C)NS(=O)(=O)c1ccccc1-c1ccc(N2CCC[C@@H](NC(=O)Nc3ccc(Cl)cc3)C2=O)cc1 [Example 183] | 0.56 | 0.46
5 | CS(=O)(=O)c1ccc(-c2ccc(N3CCCC(NC(=O)Nc4ccc(C(F)(F)F)cc4)C3=O)cc2)cc1 (stereo not shown) [Example 49, 1-(1-(4′-(methylsulfonyl)-[1,1′-biphenyl]-4-yl)-2-oxopiperidin-3-yl)-3-(4-(trifluoromethyl)phenyl)urea] | 2100 | 850
6 | COc1ccc(NC(=O)N[C@@H]2CCCN(c3ccc(-c4ccccc4C(N)=O)cc3)C2=O)cc1Cl [Example 176] | 1200 | 780
7 | NC(=O)c1ccccc1-c1ccc(N2CCC[C@@H](NC(=O)Nc3ccc(C(F)(F)F)cc3)C2=O)cc1 [Example 139] | 150 | 10
8 | NC(=O)c1ccccc1-c1ccc(N2CCC[C@@H](NC(=O)Nc3ccc(F)cc3)C2=O)cc1 [Example 174] | 900 | 450
9 | CS(=O)(=O)c1ccccc1-c1ccc(N2CCCC(NC(=O)Nc3ccc(Cl)nn3)C2=O)c(F)c1 (stereo not shown) [Example 27, 1-(6-chloropyridazin-3-yl)-3-(1-(3-fluoro-2′-(methylsulfonyl)-[1,1′-biphenyl]-4-yl)-2-oxopiperidin-3-yl)urea] | 950 | 400
10 | NC(=O)c1ccc(-c2ccc(N3CCCC(NC(=O)Nc4ccc(C(F)(F)F)cc4)C3=O)cc2)cc1 (stereo not shown) [Example 48, 4′-(2-oxo-3-(3-(4-(trifluoromethyl)phenyl)ureido)piperidin-1-yl)-[1,1′-biphenyl]-4-carboxamide] | 930 | 560
11 | COc1ccc(NC(=O)N[C@@H]2CCCN(c3ccc(-c4ccccc4NS(C)(=O)=O)cc3)C2=O)cc1 [Example 199] | 140 | 0.28
12 | NC(=O)c1ccccc1-c1ccc(N2CCC[C@@H](NC(=O)Nc3ccc(Cl)cc3)C2=O)c(F)c1 [Example 78] | 42 | 0.89

Second part, the molecule after the results:

Row | EC50 [1] [nM] | EC50 [2] [nM] | Compound
13 | 130 | 5.5 | CS(=O)(=O)Nc1ccccc1-c1ccc(N2CCC[C@@H](NC(=O)Nc3ccc(Cl)cc3F)C2=O)c(Cl)c1 [Example 299, 1-[(3R)-1-{3-chloro-2′-methanesulfonamido-[1,1′-biphenyl]-4-yl}-2-oxopiperidin-3-yl]-3-(4-chloro-2-fluorophenyl)urea]
14 | 120 | 0.63 | CS(=O)(=O)Nc1ccccc1-c1ccc(N2CCC[C@@H](NC(=O)Nc3ccc(C(F)(F)F)cc3F)C2=O)cc1 [Example 212]
15 | 2000 | 22 | COc1cnc(NC(=O)N[C@@H]2CCCN(c3ccc(-c4ccccc4NS(C)(=O)=O)c(F)c3)C2=O)c(F)c1 [Example 259]
16 | > 10000 | 20 | Cc1cnc(NC(=O)N[C@@H]2CCCN(c3ccc(-c4ccccc4NS(C)(=O)=O)cc3F)C2=O)cn1 [Example 258]
17 | 160 | 2.24 | CS(=O)(=O)Nc1ccccc1-c1ccc(N2C[C@H](O)C[C@H](NC(=O)Nc3ncc(Cl)cc3F)C2=O)cc1 [Example 214]
